These results are taken from patent US7335817B2, “Canola line 45H25” (Pioneer Hi-Bred International, Inc., priority 2005, dated 2008).

SMILES strings stand for the structures. Entries after “also recorded” stand apart in the source; their conditions may differ.

In the experiment the test system is Canola Variety 45H25. Briefly: Herbicide resistance of canola variety 45H25 at standard recommended application rates. Format: in vivo, Brassica napus. As to conditions: for Herbicide resistance (Description): response of variety 45H25 to the herbicide, in words; for Herbicide resistance rating (Mean): scale 0 = not tested, 1 = resistant, variety 45H25. The source says: When preparing the detailed phenotypic information that follows, plants of the new 45H25 variety were observed while growing using conventional agronomic practices. For comparative purposes canola plants of four publicly available canola lines were similarly grown in a three-replication experiment. Based on observations recorded on various morphological traits for the variety 45H25 and comparative check cultivars, variety 45H25 can be described as follow: […]

As to `CP(=O)(O)CCC(N)C(=O)O` (centres unmarked) [Glufosinate], the “Herbicide resistance (Description)” value is recorded as “susceptible”. Also, where the note is “5 = tolerant, 9 = susceptible”, the “Herbicide resistance rating (Mean)” value came out at 9.00.
For `O=C(O)CNCP(=O)(O)O` [Glyphosate], the “Herbicide resistance (Description)” value is given as “resistant”. Also, the “Herbicide resistance (Description)” value (listed as glyphosate) is on record as “resistance; also recorded: resistant”. Also, the “Herbicide resistance rating (Mean)” value (2 = tolerant, 3 = susceptible) came to 1.00.
